Test results as given in ChEMBL document CHEMBL4800722, “Data for DCP probe BI 605906” (2021).

Tests used:
[1] = biological target: AMP-activated protein kinase alpha-2/beta-2/gamma-2 (Homo sapiens) (UniProt P54646+O43741+Q9UGJ0); experiment: AMPK (A2/B2/G2) Invitrogen Lab (UK) kinase screen (BI); type: protein-complex assay; details: Compound concentration 1.0 uM
[2] = biological target: Casein kinase I isoform alpha (Homo sapiens) (UniProt P48729); details: Compound concentration 1.0 uM
[3] = biological target: Homeodomain-interacting protein kinase 1 (Homo sapiens) (UniProt Q86Z02); details: Compound concentration 1.0 uM
[4] = biological target: Protein-tyrosine kinase 6 (Homo sapiens) (UniProt Q13882); details: Compound concentration 1.0 uM
[5] = biological target: Beta-3 adrenergic receptor (Homo sapiens) (UniProt P13945); details: Compound concentration 10.0 uM
[6] = biological target: Sphingosine kinase 1 (Homo sapiens) (UniProt Q9NYA1); experiment: SPHK1 Invitrogen Lab (UK) kinase screen (BI); details: Compound concentration 1.0 uM
[7] = biological target: Proto-oncogene tyrosine-protein kinase Src (Homo sapiens) (UniProt P12931); experiment: SRC N1 Invitrogen Lab (UK) kinase screen (BI); details: Compound concentration 1.0 uM
Sequence of Proto-oncogene tyrosine-protein kinase Src (Homo sapiens) (P12931 2-536 limits assumed): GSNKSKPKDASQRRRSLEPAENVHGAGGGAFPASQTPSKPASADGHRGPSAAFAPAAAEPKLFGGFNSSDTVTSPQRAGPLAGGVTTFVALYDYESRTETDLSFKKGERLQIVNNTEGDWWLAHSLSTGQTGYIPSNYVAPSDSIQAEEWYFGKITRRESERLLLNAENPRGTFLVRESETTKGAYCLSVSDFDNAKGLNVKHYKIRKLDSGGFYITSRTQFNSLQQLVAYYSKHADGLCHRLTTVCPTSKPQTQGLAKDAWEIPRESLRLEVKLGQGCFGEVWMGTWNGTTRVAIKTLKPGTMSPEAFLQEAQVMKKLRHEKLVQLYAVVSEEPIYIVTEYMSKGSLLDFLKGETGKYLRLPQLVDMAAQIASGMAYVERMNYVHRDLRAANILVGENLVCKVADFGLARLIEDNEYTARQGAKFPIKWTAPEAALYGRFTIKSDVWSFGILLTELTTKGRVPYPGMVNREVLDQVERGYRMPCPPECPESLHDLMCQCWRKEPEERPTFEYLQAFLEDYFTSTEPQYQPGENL

[8] = biological target: Cyclin-dependent kinase 4/cyclin D1 (Homo sapiens) (UniProt P11802+P24385); details: Compound concentration 1.0 uM
[9] = biological target: D(3) dopamine receptor (Homo sapiens) (UniProt P35462); details: Compound concentration 10.0 uM
Sequence of D(3) dopamine receptor (Homo sapiens) (P35462 whole entry): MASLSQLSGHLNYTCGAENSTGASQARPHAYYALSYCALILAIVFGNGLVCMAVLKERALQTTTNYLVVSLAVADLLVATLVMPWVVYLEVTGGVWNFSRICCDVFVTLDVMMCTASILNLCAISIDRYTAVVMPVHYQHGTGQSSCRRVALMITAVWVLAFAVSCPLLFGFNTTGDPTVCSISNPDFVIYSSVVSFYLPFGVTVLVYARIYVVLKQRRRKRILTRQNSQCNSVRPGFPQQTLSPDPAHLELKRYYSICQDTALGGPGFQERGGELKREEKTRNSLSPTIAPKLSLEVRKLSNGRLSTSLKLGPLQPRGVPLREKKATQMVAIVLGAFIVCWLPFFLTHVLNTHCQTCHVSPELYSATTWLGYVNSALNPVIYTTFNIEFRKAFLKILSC

[10] = biological target: Mitogen-activated protein kinase 8 (Homo sapiens) (UniProt P45983); experiment: JNK1A1SAPK1C DUNDEE kinase screen (BI); details: Compound concentration 10.0 uM
[11] = biological target: Serine/threonine-protein kinase/endoribonuclease IRE2 (Homo sapiens) (UniProt Q76MJ5); experiment: ERN2 Invitrogen Lab (UK) kinase screen (BI); details: Compound concentration 1.0 uM
[12] = biological target: Lymphokine-activated killer T-cell-originated protein kinase (Homo sapiens) (UniProt Q96KB5); details: Compound concentration 10.0 uM
[13] = biological target: Serine/threonine-protein kinase tousled-like 1 (Homo sapiens) (UniProt Q9UKI8); details: Compound concentration 1.0 uM
[14] = biological target: D(2) dopamine receptor (Homo sapiens) (UniProt P14416); details: Compound concentration 10.0 uM
Sequence of D(2) dopamine receptor (Homo sapiens) (P14416 whole entry): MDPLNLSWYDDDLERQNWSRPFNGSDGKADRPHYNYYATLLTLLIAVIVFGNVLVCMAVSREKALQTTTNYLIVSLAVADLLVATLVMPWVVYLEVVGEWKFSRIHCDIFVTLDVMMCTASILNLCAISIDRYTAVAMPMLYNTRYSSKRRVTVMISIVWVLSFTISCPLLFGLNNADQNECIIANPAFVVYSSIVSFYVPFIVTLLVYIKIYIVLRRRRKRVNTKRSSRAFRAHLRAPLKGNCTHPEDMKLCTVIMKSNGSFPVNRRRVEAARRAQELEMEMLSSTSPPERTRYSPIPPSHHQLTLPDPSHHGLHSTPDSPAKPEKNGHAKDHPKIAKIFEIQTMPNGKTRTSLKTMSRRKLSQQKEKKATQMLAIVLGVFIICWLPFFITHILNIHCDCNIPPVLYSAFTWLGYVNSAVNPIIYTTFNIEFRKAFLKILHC

[15] = biological target: Mitogen-activated protein kinase kinase kinase kinase 5 (Homo sapiens) (UniProt Q9Y4K4); details: Compound concentration 1.0 uM
[16] = biological target: Casein kinase I isoform alpha-like (Homo sapiens) (UniProt Q8N752); experiment: CSNK1A1L Invitrogen Lab (UK) kinase screen (BI); details: Compound concentration 1.0 uM
[17] = biological target: Angiopoietin-1 receptor (Homo sapiens) (UniProt Q02763)
Sequence of Angiopoietin-1 receptor (Homo sapiens) (Q02763 whole entry): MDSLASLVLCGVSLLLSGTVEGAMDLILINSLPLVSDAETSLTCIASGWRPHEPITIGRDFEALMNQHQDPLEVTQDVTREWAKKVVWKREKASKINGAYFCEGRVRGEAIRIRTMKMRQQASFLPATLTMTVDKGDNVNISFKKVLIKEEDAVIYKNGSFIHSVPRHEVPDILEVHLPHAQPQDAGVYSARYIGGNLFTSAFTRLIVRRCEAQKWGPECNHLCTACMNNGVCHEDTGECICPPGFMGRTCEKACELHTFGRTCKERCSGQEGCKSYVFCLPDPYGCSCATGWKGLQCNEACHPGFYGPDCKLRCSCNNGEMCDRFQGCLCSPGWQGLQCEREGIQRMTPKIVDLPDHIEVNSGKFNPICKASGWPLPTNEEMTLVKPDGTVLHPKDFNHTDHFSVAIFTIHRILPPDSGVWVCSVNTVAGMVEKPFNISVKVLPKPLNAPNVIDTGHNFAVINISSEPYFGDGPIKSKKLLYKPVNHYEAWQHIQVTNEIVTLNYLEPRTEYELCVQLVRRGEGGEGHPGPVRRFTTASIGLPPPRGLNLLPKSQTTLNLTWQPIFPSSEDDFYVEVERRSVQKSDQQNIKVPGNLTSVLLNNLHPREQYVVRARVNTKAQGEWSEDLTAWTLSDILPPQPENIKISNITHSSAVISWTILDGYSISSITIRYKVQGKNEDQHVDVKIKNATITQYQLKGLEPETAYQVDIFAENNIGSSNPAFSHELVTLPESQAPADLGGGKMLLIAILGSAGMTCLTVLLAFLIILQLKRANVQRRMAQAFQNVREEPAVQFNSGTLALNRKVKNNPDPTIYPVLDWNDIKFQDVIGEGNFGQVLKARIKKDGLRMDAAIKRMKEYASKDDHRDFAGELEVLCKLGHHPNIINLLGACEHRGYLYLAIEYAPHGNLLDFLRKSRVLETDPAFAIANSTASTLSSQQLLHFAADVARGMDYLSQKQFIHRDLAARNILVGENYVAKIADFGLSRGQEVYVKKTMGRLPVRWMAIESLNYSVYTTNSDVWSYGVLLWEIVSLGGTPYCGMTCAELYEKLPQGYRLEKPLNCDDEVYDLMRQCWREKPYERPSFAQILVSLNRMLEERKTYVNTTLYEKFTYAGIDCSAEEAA

[18] = biological target: T1, Cyclin-G-associated kinase (Homo sapiens) (UniProt O14976)
T1 sequence (whole entry): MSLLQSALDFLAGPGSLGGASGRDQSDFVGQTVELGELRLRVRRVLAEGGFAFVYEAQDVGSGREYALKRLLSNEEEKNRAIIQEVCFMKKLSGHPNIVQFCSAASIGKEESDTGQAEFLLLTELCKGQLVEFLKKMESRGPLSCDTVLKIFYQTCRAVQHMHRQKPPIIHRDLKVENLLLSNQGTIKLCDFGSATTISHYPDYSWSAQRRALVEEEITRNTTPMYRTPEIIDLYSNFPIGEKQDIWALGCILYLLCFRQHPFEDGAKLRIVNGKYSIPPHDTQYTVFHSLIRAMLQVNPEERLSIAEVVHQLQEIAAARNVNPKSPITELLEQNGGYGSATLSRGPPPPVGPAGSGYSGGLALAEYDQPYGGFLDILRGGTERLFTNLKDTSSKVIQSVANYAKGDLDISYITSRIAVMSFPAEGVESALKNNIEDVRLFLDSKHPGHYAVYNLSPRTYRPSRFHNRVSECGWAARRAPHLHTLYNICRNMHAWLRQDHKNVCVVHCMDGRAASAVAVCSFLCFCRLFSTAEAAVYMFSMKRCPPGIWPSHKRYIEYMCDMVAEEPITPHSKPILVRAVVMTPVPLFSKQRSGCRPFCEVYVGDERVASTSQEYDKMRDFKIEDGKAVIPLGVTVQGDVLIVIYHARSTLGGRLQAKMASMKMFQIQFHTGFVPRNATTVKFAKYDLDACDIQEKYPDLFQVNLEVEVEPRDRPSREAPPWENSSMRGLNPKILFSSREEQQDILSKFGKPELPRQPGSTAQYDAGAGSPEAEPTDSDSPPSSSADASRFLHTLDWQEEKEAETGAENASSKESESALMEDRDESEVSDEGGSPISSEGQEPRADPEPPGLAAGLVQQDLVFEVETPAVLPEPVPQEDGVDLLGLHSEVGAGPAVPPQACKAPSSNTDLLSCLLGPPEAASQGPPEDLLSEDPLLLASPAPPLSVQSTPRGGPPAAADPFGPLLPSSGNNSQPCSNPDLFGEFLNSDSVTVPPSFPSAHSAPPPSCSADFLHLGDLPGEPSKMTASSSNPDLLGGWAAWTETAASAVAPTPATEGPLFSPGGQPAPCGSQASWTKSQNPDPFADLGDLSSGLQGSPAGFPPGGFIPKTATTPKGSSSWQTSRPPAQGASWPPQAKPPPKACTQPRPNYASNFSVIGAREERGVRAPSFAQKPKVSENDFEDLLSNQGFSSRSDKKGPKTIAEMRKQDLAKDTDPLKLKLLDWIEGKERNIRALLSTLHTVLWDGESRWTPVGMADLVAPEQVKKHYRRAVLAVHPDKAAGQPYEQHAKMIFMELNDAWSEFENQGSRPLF

[19] = biological target: Receptor-interacting serine/threonine-protein kinase 3 (Homo sapiens) (UniProt Q9Y572); details: Compound concentration 1.0 uM
Sequence of Receptor-interacting serine/threonine-protein kinase 3 (Homo sapiens) (Q9Y572 whole entry, looked up): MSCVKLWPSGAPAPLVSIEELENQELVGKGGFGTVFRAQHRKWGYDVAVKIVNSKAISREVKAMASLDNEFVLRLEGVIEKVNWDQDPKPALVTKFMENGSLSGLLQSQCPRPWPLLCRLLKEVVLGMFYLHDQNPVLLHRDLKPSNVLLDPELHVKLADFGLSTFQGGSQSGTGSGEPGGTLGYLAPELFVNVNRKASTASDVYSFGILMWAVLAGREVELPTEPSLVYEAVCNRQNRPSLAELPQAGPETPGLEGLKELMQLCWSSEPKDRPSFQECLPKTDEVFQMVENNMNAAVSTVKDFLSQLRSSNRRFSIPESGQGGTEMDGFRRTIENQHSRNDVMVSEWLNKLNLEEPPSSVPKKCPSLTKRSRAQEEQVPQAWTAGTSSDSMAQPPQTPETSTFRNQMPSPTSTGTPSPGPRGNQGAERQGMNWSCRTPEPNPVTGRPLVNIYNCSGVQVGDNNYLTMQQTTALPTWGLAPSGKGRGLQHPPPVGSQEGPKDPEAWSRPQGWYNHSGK

[20] = biological target: Calpain-1 catalytic subunit (Homo sapiens) (UniProt P07384); details: Compound concentration 10.0 uM
[21] = biological target: Serine/threonine-protein kinase D1 (Homo sapiens) (UniProt Q15139); experiment: PKD1 DUNDEE kinase screen (BI); details: Compound concentration 10.0 uM
[22] = biological target: ATP-sensitive inward rectifier potassium channel 1 isoform X1 (Mesocricetus auratus) (UniProt A0A1U8CU73); experiment: K+/KATP/HA Eurofins SafetyScreen44 (BI); details: Cricetinae; Compound concentration 10.0 uM
[23] = biological target: Myosin-IIIa (Homo sapiens) (UniProt Q8NEV4); details: Compound concentration 1.0 uM
[24] = biological target: MAP kinase-activated protein kinase 3 (Homo sapiens) (UniProt Q16644); details: Compound concentration 1.0 uM
Sequence of MAP kinase-activated protein kinase 3 (Homo sapiens) (Q16644 whole entry, looked up): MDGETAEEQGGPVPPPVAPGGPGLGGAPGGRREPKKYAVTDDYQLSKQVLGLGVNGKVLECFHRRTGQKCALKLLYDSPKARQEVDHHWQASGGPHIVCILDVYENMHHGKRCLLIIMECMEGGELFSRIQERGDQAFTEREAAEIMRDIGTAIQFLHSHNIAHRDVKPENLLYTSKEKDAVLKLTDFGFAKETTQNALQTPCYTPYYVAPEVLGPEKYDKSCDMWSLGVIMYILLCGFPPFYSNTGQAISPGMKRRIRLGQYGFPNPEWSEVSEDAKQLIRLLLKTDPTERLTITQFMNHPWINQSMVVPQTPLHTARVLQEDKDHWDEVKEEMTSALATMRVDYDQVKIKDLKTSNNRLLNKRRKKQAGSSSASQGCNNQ

[25] = biological target: Dual specificity testis-specific protein kinase 1 (Homo sapiens) (UniProt Q15569); details: Compound concentration 1.0 uM

Sequence of AMP-activated protein kinase alpha-2/beta-2/gamma-2 (Homo sapiens) (O43741 whole entry, looked up, canonical isoform): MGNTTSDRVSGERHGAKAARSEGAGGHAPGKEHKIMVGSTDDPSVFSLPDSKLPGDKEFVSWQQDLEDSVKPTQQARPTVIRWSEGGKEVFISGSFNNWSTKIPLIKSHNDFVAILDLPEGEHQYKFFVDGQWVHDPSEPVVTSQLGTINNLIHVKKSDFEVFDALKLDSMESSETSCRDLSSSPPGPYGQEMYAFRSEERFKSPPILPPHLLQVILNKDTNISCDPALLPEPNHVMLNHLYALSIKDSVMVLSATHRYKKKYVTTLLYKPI
Sequence of AMP-activated protein kinase alpha-2/beta-2/gamma-2 (Homo sapiens) (P54646 whole entry, looked up, canonical isoform): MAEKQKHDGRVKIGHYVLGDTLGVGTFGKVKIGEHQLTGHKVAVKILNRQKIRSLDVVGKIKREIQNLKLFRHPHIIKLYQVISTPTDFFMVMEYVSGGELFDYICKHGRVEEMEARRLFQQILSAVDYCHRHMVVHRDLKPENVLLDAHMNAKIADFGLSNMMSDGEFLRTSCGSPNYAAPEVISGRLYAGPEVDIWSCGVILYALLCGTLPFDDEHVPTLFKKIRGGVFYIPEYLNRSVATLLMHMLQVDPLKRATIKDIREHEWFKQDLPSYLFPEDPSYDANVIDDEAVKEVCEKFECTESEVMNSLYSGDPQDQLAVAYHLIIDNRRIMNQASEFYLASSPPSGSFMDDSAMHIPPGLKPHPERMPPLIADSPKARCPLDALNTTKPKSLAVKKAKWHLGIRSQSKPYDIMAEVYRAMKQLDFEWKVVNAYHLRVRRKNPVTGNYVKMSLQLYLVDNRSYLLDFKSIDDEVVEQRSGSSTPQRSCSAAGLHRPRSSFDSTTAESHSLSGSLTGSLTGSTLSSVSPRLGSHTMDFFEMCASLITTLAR
Sequence of AMP-activated protein kinase alpha-2/beta-2/gamma-2 (Homo sapiens) (Q9UGJ0 whole entry, looked up, canonical isoform): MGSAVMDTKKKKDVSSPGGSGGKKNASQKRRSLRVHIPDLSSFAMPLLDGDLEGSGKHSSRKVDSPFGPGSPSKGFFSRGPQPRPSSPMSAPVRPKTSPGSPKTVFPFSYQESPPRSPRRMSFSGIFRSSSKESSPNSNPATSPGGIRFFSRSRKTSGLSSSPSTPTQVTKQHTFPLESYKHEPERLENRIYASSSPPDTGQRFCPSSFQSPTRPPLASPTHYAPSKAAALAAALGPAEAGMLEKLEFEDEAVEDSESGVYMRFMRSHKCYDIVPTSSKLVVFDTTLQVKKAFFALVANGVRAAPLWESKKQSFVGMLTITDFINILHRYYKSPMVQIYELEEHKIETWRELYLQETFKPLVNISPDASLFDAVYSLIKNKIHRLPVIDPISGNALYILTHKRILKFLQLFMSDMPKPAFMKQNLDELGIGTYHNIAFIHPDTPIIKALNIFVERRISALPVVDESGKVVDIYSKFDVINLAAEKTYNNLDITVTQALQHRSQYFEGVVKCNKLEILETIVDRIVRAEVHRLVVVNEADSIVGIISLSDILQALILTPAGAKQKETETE

With `CCC(F)(F)c1cc(N2CCC(S(C)(=O)=O)CC2)nc2sc(C(N)=O)c(N)c12` [BI-605906] the residual activity [1] was 88%, the residual activity [2] was 98% and the residual activity [3] was 101%. It also gave a residual activity [4] of 98%, an inhibition [5] of 18% and a residual activity [6] of 81%. It also gave a residual activity [7] of 88%, a residual activity [8] of 99% and an inhibition [9] of 51.5%. The residual activity [10] was 93.8%, the residual activity [11] was 102% and the residual activity [12] was 100%. It also gave a residual activity [13] of 91%, an inhibition [14] of 69.8% and a residual activity [15] of 101%. For the same molecule, the residual activity [16] was 84%, the residual activity ([17]; Compound concentration 1.0 uM) was 93% and the residual activity ([17]; Compound concentration 10.0 uM) was 82%. For the same molecule, the residual activity ([18]; Compound concentration 0.001 uM) was 99%, the residual activity ([18]; Compound concentration 1.0 uM) was 7% and the residual activity ([18]; Compound concentration 20.0 uM) was 6%. For the same molecule, the residual activity [19] was 100%, the residual activity [20] was 97% and the residual activity [21] was 93.5%. The residual activity [22] was 110%, the residual activity [23] was 92% and the residual activity [24] was 93%. The residual activity [25] was 92%.
